Measurements as given in paper PMC7730205, “Different Sensitivity of Control and MICU1- and MICU2-Ablated Trypanosoma cruzi Mitochondrial Calcium Uniporter Complex to Ruthenium-Based Inhibitors” (International Journal of Molecular Sciences, 2020).

Tested on: T. cruzi epimastigotes (control, TcMICU1-KO, TcMICU2-KO)
Test: Mitochondrial membrane potential of digitonin-permeabilized epimastigotes (safranine O)
Format: cell-based, Trypanosoma cruzi
Details: TcMICU1-KO or TcMICU2-KO cells, succinate
Text: To determine whether the defect in mitochondrial Ca^2+ uptake in the presence of inhibitors was not secondary to mitochondrial membrane depolarization, we measured the mitochondrial membrane potential (Δψm) of digitonin-permeabilized epimastigotes using safranine O in the presence of succinate as mitochondrial substrate.
Figure 3 Effect of inhibitors on the mitochondrial membrane potential of epimastigotes. Changes in mitochondrial membrane potential (Δψm) of digitonin-permeabilized epimastigotes as detected by changes in safranine O fluorescence in control (a), TcMICU1-KO (b), and TcMICU2-KO (c) epimastigotes in the absence or presence of inhibitors. Cells (5 × 10^7) were added to the reaction buffer (2 mL) containing 0.2% BSA, 5 mM succinate, 50 μM EGTA and 5 μM safranine O. The reaction was started with 50 μM digitonin (DIG) in the presence or absence of the inhibitor, and 250 μM ADP, 1.5 μM carboxyatractyloside (CAT), 50 μM CaCl2 (Ca^2+), 200 μM EGTA, and 4 μM FCCP were added when indicated. A decrease in fluorescence after permeabilization with digitonin indicated the accumulation of the dye in energized mitochondria. The addition of ADP produced a small dissipation of membrane potential, indicating ADP phosphorylation. Δψm returned to its initial level after the addition of the adenine nucleotide translocator inhibitor CAT. The addition of FCCP collapsed the membrane potential. (d) Changes in safranine O fluorescence after digitonin addition (between 30 and 60 s) in control (C), TcMICU1-KO and TcMICU2-KO epimastigotes. […] Changes in safranine O fluorescence in control (C) (e), TcMICU1-KO (1-KO) (f), and TcMICU2-KO (2-KO) (g) epimastigotes after addition of ADP from three experiments like that shown in panels (a–c).
Estimation of mitochondrial membrane potential in situ was done spectrofluorometrically using the indicator dye safranine O, as described previously. […] Fluorescence changes were monitored using the Hitachi F-7000 spectrofluorometer (excitation of 495 nm and emission of 586 nm).

`N.N.N.N.N.N.N.N.[Cl][Ru+3].[N-]=[Ru][Cl]` [Ru265] was tested, and the “Effect on mitochondrial membrane potential (Δψm) and response to ADP” value was “did not significantly affect”.
